The values below come from patent EP1208096B1, “SUBSTITUTED PYRIDAZINES AND FUSED PYRIDAZINES WITH ANGIOGENESIS INHIBITING ACTIVITY” (Bayer Corporation, priority 1999, dated 2001).

In test [1] the target is T1, NIH3T3 cells expressing the full length KDR receptor (Homo sapiens, UniProt P35968).
T1 construct: NIH3T3 cells expressing the full length KDR receptor; expressed in transfected cells; host or cells: NIH3T3 cells (G418 selection)
As to the kind of experiment: Cell mechanistic assay - Inhibition of 3T3 KDR phosphorylation. The class given is cell-based. The note with it: VEGF (30 ng / ml) for 10 minutes after 30 minutes with compound; KDR phosphotyrosine ELISA. How it is done: NIH3T3 cells expressing the full length KDR receptor were grown in DMEM (Life Technologies, Inc., Grand Island, NY) supplemented with 10% newborn calf serum, low glucose, 25 mM /L sodium pyruvate, pyridoxine hydrochloride and 0.2 mg/ ml of G418 (Life Technologies Inc., Grand Island, NY). The cells were maintained in collagen I-coated T75 flasks (Becton Dickinson Labware, Bedford, MA) in a humidified 5% CO2 atmosphere at 37°C.
Fifteen thousand cells were plated into each well of a collagen I-coated 96-well plate in the DMEM growth medium. Six hours later, the cells were washed and the medium was replaced with DMEM without serum. After overnight culture to quiesce the cells, the medium was replaced by Dulbecco's phosphate-buffered saline (Life Technologies Inc., Grand Island, NY) with 0.1% bovine albumin (Sigma Chemical Co., St Louis, MO). After adding various concentrations (0-300 nM) of test compounds to the cells in 1% final concentration of DMSO, the cells were incubated at room temperature for 30 minutes. The cells were then treated with VEGF (30 ng / ml) for 10 minutes at room temperature. Following VEGF stimulation, the buffer was removed and the cells were lysed by addition of 150 µl of extraction buffer (50 mM Tris, pH 7.8, supplemented with 10% glycerol, 50 mM BGP, 2 mM EDTA, 10 mM NaF, 0.5 mM NaVO4, and 0.3% TX-100) at 4°C for 30 minutes.
To assess receptor phosphorylation, 100 microliters of each cell lysate was added to the wells of an ELISA plate precoated with 300 ng of antibody C20 (Santa Cruz Biotechnology, Inc., Santa Cruz , CA). Following a 60-minute incubation, the plate was washed and bound KDR was probed for phosphotyrosine using an anti-phosphotyrosine mAb clone 4G10 (Upstate Biotechnology, Lake Placid, NY). The plate was washed and wells were incubated with anti-mouse IgG/HRP conjugate (Amersham International plc, Buckinghamshire, England) for 60 minutes. Wells were washed and phosphotyrosine was quantitated by addtion of 100 µl per well of 3,3',5,5' tetramethylbenzidine (Kirkegaard and Perry, TMB Microwell 1 Component peroxidase substrate) solution. Color development was arrested by the addition of 100 µl 1% HCl based stop solution (Kirkegaard and Perry, TMB 1 Component Stop Solution).
Optical densities (OD) were determined spectrophotometrically at 450 nm in a 96-well plate reader (SpectraMax 250, Molecular Devices). Background (no VEGF added) OD values were subtracted from all ODs and percent inhibition was calculated according to the equation: % Inhibition =((OD(VEGF control) - OD(with test compound)) X 100)/(OD(VEGF control) - OD(no VEGF added)) [formula]
IC50s were determined with a least squares analysis program using compound concentration versus percent inhibition. Compounds that have IC50 < 20 nM in this assay include those of Examples 2, 6, 7, 11, 15 and 16. Compounds that have IC50 values between 20 nM and 50 nM include those of examples 1, 4, 5, 8, 10, 12, 13 and 14. Those that have measured IC50 values > 50 nM include those of examples 9 and 21.

Test [2] has as its system SK-MEL2 human tumor cells that were transfected with a plasmid containing the murine VEGF gene. As to the kind of experiment: Matrigel Angiogenesis Model (hemoglobin content of Matrigel plugs). The class given is in vivo, Mice. The note with it: 30, 100 and 300 mg/kg po sid; 12 days post-implantation; vs. vehicle control animals. How it is done:
Preparation of Matrigel Plugs and in vivo Phase: Matrigel® (Collaborative Biomedical Products, Bedford, MA) is a basement membrane extract from a murine tumor composed primarily of laminin, collagen IV and heparan sulfate proteoglycan. It is provided as a sterile liquid at 4° C, but rapidly forms a solid gel at 37° C.
Liquid Matrigel at 4° C was mixed with SK-MEL2 human tumor cells that were transfected with a plasmid containing the murine VEGF gene with a selectable marker. Tumor cells were grown in vitro under selection and cells were mixed with cold liquid Matrigel at a ratio of 2 X 10^6 per 0.5 ml. […]
Optical densities were determined spectrophotometrically at 600 nm in a 96-well plate reader, SpectraMax 250 Microplate Spectrophotometer System (Molecular Devices, Sunnyvale, CA). Background Lysis Buffer readings were subtracted from all wells.
Total sample hemoglobin content was calculated according to the following equation: Total Hemoglobin = (Sample Lysate Volume) x (Hemoglobin Concentration) [formula]
The average Total Hemoglobin of Matrigel samples without cells was subtracted from each Total Hemoglobin Matrigel sample with cells. Percent inhibition was calculated according to the following equation: % Inhibition =((Average Total Hemoglobin Drug-Treated Tumor Lysates) X 100)/((Average Total Hemoglobin Non-Treated Tumor Lysates)) [formula]

Structures are written as SMILES.

T1 sequence (P35968 20-1356): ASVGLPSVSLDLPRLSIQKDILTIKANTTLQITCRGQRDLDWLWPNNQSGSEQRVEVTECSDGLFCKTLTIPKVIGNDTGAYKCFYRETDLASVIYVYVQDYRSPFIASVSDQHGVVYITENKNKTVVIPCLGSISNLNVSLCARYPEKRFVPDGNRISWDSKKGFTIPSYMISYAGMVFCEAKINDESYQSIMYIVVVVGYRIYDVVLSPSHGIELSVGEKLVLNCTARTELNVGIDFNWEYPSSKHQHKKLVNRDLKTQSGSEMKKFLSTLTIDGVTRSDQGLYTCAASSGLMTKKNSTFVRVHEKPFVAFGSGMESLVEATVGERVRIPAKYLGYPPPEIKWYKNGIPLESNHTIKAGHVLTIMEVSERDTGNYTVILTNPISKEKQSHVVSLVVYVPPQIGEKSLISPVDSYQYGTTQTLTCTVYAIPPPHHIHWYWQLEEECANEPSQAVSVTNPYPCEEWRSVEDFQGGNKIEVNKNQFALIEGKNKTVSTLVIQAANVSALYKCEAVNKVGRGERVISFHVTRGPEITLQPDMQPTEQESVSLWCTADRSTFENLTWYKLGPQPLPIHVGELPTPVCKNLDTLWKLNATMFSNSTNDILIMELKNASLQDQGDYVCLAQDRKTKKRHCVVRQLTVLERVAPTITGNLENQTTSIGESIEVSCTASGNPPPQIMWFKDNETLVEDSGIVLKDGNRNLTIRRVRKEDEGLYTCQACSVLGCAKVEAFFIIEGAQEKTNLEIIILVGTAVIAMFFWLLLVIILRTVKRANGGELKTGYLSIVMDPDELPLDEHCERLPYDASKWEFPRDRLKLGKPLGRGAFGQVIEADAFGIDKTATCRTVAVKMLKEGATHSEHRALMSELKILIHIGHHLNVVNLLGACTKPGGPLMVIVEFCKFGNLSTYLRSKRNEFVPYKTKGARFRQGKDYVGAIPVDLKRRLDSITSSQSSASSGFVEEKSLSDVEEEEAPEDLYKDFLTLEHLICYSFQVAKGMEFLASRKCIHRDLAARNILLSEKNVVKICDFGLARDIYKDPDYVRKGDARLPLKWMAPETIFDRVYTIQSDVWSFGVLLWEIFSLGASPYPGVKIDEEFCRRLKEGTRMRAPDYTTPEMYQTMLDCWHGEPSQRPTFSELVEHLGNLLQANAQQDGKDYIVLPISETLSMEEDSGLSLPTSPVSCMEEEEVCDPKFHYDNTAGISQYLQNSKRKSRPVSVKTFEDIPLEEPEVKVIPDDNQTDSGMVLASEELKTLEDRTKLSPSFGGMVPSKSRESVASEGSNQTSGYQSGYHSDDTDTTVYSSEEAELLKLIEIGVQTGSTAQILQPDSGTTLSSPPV

For the compound `NC(=O)c1cc(Cc2nnc(Nc3ccc(Cl)cc3)c3ccccc23)ccn1` [Example 2, 4-[4-(4-Chlorophenylamino)phthalazin-1-ylmethyl]pyridin-2-yl carboxylic acid amide], the IC50 in test [1] is less than 20 nM. Besides, the “inhibition of total hemoglobin content of the Matrigel samples” value in test [2] is greater than 50%.

A word on the IC50: it is the concentration that inhibits the measured activity by half.
